Assay results published in BindingDB's records for doi:10.1016/s0960-894x(99)00552-1 (Smithkline Beecham Pharmaceuticals, 1999).

Test: Inhibitory activity against IgE receptor

| SMILES | IC50 |
| --- | --- |
| CNC(=O)[C@H](Cc1ccccc1)NC(=O)[C@H](Cc1cc2cccc(OC)c2o1)[C@H](O)C(=O)NO [(2R,3S)-2,N*1*-Dihydroxy-3-(7-methoxy-benzofuran-2-ylmethyl)-N*4*-((S)-1-methylcarbamoyl-2-phenyl-ethyl)-succinamide] | > 20000 nM |
| CNC(=O)[C@H](Cc1ccccc1)NC(=O)[C@H](Cc1ccc2ccccc2c1)[C@H](O)C(=O)NO [(2R,3S)-2,N*1*-Dihydroxy-N*4*-((S)-1-methylcarbamoyl-2-phenyl-ethyl)-3-naphthalen-2-ylmethyl-succinamide] | 400 nM |
| NC(=O)[C@H](Cc1ccccc1)NC(=O)[C@H](Cc1ccc2ccc(OCc3ccccc3)cc2c1)[C@H](O)C(=O)NO [(2R,3S)-2-(7-Benzyloxy-naphthalen-2-ylmethyl)-N*1*-((S)-1-carbamoyl-2-phenyl-ethyl)-3,N*4*-dihydroxy-succinamide] | > 20000 nM |
| CNC(=O)[C@H](Cc1ccccc1)NC(=O)[C@H](Cc1csc2ccccc12)[C@H](O)C(=O)NO [(2R,3S)-2-Benzo[b]thiophen-3-ylmethyl-3,N*4*-dihydroxy-N*1*-((S)-1-methylcarbamoyl-2-phenyl-ethyl)-succinamide] | > 1000 nM |
| NC(=O)[C@H](Cc1ccccc1)NC(=O)[C@H](Cc1nc2ccccc2s1)[C@H](O)C(=O)NO [(2R,3S)-2-Benzothiazol-2-ylmethyl-N*1*-((S)-1-carbamoyl-2-phenyl-ethyl)-3,N*4*-dihydroxy-succinamide] | 320 nM |
| CC(C)(C)[C@H](NC(=O)[C@H](Cc1ccc2cc(F)c(F)cc2c1)[C@H](O)C(=O)NO)C(N)=O [(2R,3S)-N*1*-((S)-1-Carbamoyl-2,2-dimethyl-propyl)-2-(6,7-difluoro-naphthalen-2-ylmethyl)-3,N*4*-dihydroxy-succinamide] | > 1000 nM |
| NC(=O)[C@H](Cc1ccccc1)NC(=O)[C@H](Cc1sc2ccccc2c1Cl)[C@H](O)C(=O)NO [(2R,3S)-N*1*-((S)-1-Carbamoyl-2-phenyl-ethyl)-2-(3-chloro-benzo[b]thiophen-2-ylmethyl)-3,N*4*-dihydroxy-succinamide] | > 10000 nM |
| NC(=O)[C@H](Cc1ccccc1)NC(=O)[C@H](Cc1ccc2cc(F)ccc2c1)[C@H](O)C(=O)NO [(2R,3S)-N*1*-((S)-1-Carbamoyl-2-phenyl-ethyl)-2-(6-fluoro-naphthalen-2-ylmethyl)-3,N*4*-dihydroxy-succinamide] | 220 nM |
| CC(C)(C)[C@H](NC(=O)[C@H](Cc1ccc2ncccc2c1)[C@H](O)C(=O)NO)C(N)=O [(2R,3S)-N*4*-((S)-1-Carbamoyl-2,2-dimethyl-propyl)-2,N*1*-dihydroxy-3-quinolin-6-ylmethyl-succinamide] | 1000 nM |
| NC(=O)[C@H](Cc1ccccc1)NC(=O)[C@H](Cc1ccc2ccc(O)cc2c1)[C@H](O)C(=O)NO [(2R,3S)-N*4*-((S)-1-Carbamoyl-2-phenyl-ethyl)-2,N*1*-dihydroxy-3-(7-hydroxy-naphthalen-2-ylmethyl)-succinamide] | 760 nM |
| NC(=O)[C@H](Cc1ccccc1)NC(=O)[C@H](Cc1ccc2ccccc2c1)[C@H](O)C(=O)NO [(2R,3S)-N*4*-((S)-1-Carbamoyl-2-phenyl-ethyl)-2,N*1*-dihydroxy-3-naphthalen-2-ylmethyl-succinamide] | 600 nM |
| CNC(=O)[C@@H](NC(=O)[C@H](Cc1ccc2c(c1)CCCC2)[C@H](O)C(=O)NO)C(C)(C)C [(2R,3S)-N*4*-((S)-2,2-Dimethyl-1-methylcarbamoyl-propyl)-2,N*1*-dihydroxy-3-(5,6,7,8-tetrahydro-naphthalen-2-ylmethyl)-succinamide] | > 10000 nM |
| CNC(=O)[C@@H](NC(=O)[C@H](Cc1ccc2ccccc2c1)[C@H](O)C(=O)NO)C(C)(C)C [(2R,3S)-N*4*-((S)-2,2-Dimethyl-1-methylcarbamoyl-propyl)-2,N*1*-dihydroxy-3-naphthalen-2-ylmethyl-succinamide] | 230 nM |
| O=C(C[C@@H](Cc1ccc2ccccc2c1)C(=O)N[C@@H](Cc1ccccc1)C(=O)NCc1ccccc1)NO [(R)-N*1*-((S)-1-Benzylcarbamoyl-2-phenyl-ethyl)-N*4*-hydroxy-2-naphthalen-2-ylmethyl-succinamide] | 1000 nM |

Now those with a lower IC50, led by results:

| IC50 | SMILES |
| --- | --- |
| 100 nM | CNC(=O)[C@H](Cc1ccccc1)NC(=O)[C@H](Cc1cc2ccccc2o1)[C@H](O)C(=O)NO [(2R,3S)-2-Benzofuran-2-ylmethyl-3,N*4*-dihydroxy-N*1*-((S)-1-methylcarbamoyl-2-phenyl-ethyl)-succinamide] |
| 100 nM | NC(=O)[C@H](Cc1ccccc1)NC(=O)[C@H](Cc1ccc2ccc(F)cc2c1)[C@H](O)C(=O)NO [(2R,3S)-N*1*-((S)-1-Carbamoyl-2-phenyl-ethyl)-2-(7-fluoro-naphthalen-2-ylmethyl)-3,N*4*-dihydroxy-succinamide] |
| 80 nM | CC(C)(C)[C@H](NC(=O)[C@H](Cc1ccc2ccc(F)cc2c1)[C@H](O)C(=O)NO)C(N)=O [(2R,3S)-N*1*-((S)-1-Carbamoyl-2,2-dimethyl-propyl)-2-(7-fluoro-naphthalen-2-ylmethyl)-3,N*4*-dihydroxy-succinamide] |
| 70 nM | CC(C)(C)[C@H](NC(=O)C(C[C@H]1CCc2ccccc2C1)[C@H](O)C(=O)NO)C(N)=O (some centres not stated) |
| 70 nM | CC(C)(C)[C@H](NC(=O)C(C[C@@H]1CCc2ccccc2C1)[C@H](O)C(=O)NO)C(N)=O (some centres not stated) |
| 20 nM | NC(=O)[C@H](Cc1ccccc1)NC(=O)[C@H](Cc1cc2ccccc2s1)[C@H](O)C(=O)NO [(2R,3S)-2-Benzo[b]thiophen-2-ylmethyl-N*1*-((S)-1-carbamoyl-2-phenyl-ethyl)-3,N*4*-dihydroxy-succinamide] |
| 20 nM | CC(C)(C)[C@H](NC(=O)[C@H](Cc1ccc2ccccc2c1)[C@H](O)C(=O)NO)C(N)=O [(2R,3S)-N*4*-((S)-1-Carbamoyl-2,2-dimethyl-propyl)-2,N*1*-dihydroxy-3-naphthalen-2-ylmethyl-succinamide] |
| 20 nM | CC(C)(C)[C@H](NC(=O)[C@H](Cc1cnc2ccccc2c1)[C@H](O)C(=O)NO)C(N)=O [(2R,3S)-N*4*-((S)-1-Carbamoyl-2,2-dimethyl-propyl)-2,N*1*-dihydroxy-3-quinolin-3-ylmethyl-succinamide] |
